Results: patent publication EP2143422A1, “Ophthalmic compositions containing gemifloxacin for the treatment of ocular infections” (S.I.F.I - SOCIETÀ INDUSTRIA FARMACEUTICA ITALIANA - S.P.A., priority 2008, dated 2010)
In brackets after ≈: the same amount, converted by molar mass. Read-outs that look alike come from different tables or passages of the source.

Experiments:
Serratia marcescens = test: E-test (Epsilometer-test), in vitro antibacterial effectiveness; type: cell-based; details: 5 ocular isolates of Serratia marcescens
Text: (§1) In order to assay the effectiveness of gemifloxacin against the most representative pathogenic strains in ophthalmic infections, its activity was verified in vitro, in terms of MIC50 and MIC90 with the E-test method described by V. […] The following ATCC bacterial strains were also included: Staphylococcus aureus 25923, Staphylococcus aureus 29213, Staphylococcus aureus 43300, S. epidermidis 35984, Pseudomonas aeruginosa 27853 and Pseudomonas aeruginosa 9027.

Ps. aeruginosa = test: as above; type: cell-based; details: Pseudomonas aeruginosa; 8 ocular isolates of Ps. aeruginosa
Text: as §1

St. epidermidis = test: as above; type: cell-based; details: Staphylococcus epidermidis; 29 ocular isolates of St. epidermidis
Text: (§2) In order to assay the effectiveness of gemifloxacin against the most representative pathogenic strains in ophthalmic infections, its activity was verified in vitro, in terms of MIC50 and MIC90 with the E-test method described by V. Lorian in "Antibiotics in laboratory medicine" (IV ed. 1996, 23-28) and compared to moxifloxacin, ciprofloxacin, levofloxacin and ofloxacin against 85 ocular bacterial isolates subdivided as follows: • 27 St. aureus, 29 S. epidermidis, 16 Coagulase Negative Staphylococci (CNS), 8 Ps. aeruginosa and 5 Serratia marcescens. The following ATCC bacterial strains were also included: Staphylococcus aureus 25923, Staphylococcus aureus 29213, Staphylococcus aureus 43300, S. epidermidis 35984, Pseudomonas aeruginosa 27853 and Pseudomonas aeruginosa 9027.
(§3) The staphylococci also included methicillin resistant strains (MRSA and MRSE).

St. aureus [1] = test: as above; type: cell-based; details: 27 ocular isolates of St. aureus
Text: as §2, §3

St. coagulase negative = test: as above; type: cell-based, Coagulase Negative Staphylococci (CNS); details: 16 ocular isolates
Text: as §2, §3

[2] = test system: ocular St. aureus isolate (7786); test: In vivo effectiveness: bacterial load (CFU/g) in cornea, bacterial keratitis model; design: species or system New Zealand albino rabbits
Description: (§4) The effectiveness and accumulation of gemifloxacin in the cornea and aqueous humour were determined in vivo after administration of the 0.3% gemifloxacin compositions (emulsion and aqueous solution) and compared to 0.3% norfloxacin and ofloxacin in aqueous solution, in New Zealand albino rabbits having been induced with bacterial keratitis (Survey of Ophthalmology, vol. 50, suppl. Nov. 2005, p.S32-S48) by intrastromal injection of an inoculum of an ocular St. aureus isolate (7786).
(§5) Male New Zealand albino rabbits were used (Harlan Italia) into which the keratitis had been induced - following anaesthesia with ketamine (37.5 mg/kg) and xylazine (10 mg/kg) by intramuscular means and novesine by topical means (2 drops per eye) - by intrasomal injection of a suspension of the ocular St. aureus isolate 7786 in PBS (Phosphate Buffered Solution). The injection was carried out using an insulin syringe with a 30-gauge needle in each cornea of each rabbit.
(§6) In the first experiment the following treatments were compared: 0.15% aqueous gemifloxacin solution, 0.3% aqueous gemifloxacin solution, 0.3% aqueous norfloxacin solution and physiological solution (0.9% NaCl) as control. The treatment was undertaken every 2 hours over 3 consecutive treatment days (5 administrations/day). The tissues were collected an hour after the last treatment, with the end point being after one day and after three days of treatment.
(§7) In the second experiment the following treatment groups were compared: 0.3% aqueous gemifloxacin solution, 0.3% gemifloxacin emulsion, 0.3% aqueous ofloxacin solution and physiological solution (0.9% NaCl) as control. The treatment was carried out every hour for only one day of treatment (7 administrations/day). The tissues were collected from the animals in each group, killed one hour after the last treatment.
All the compositions used in the two experiments described were administered at 50 µl per treatment.
The bacterial load of each sample was determined by counting CFUs (Colony Forming Units) on a filter and plate, to be reported as CFU/g of tissue.

[3] = In vivo pharmacokinetic test: ocular tissue distribution after single ophthalmic administration; design: species or system pigmented rabbits; details: rabbit, topical, 30 µl of 0.3% solution per eye
Description: The penetration capacity of gemifloxacin was determined in the cornea, conjunctiva, aqueous humour and iris-ciliary body after single ophthalmic administration (30 µl) of the solution at 0.3% in both eyes of pigmented rabbits. The tissues were collected at the following times: 15 minutes, 30 minutes, 1, 2, 4, 8, 12, 24 and 48 hours. Quantitative analysis of the samples was carried out by a LC/MS/MS method after suitable extraction of the active principle from the tissue and expressed as µg/g or µg/ml of tissue.

[4] = design: species or system New Zealand albino rabbits; details: male, New Zealand albino, rabbit, in vivo
Description: as §4, §5, §6, §7
All the compositions used in the two experiments described were administered at 50 µl per treatment. […]
The fluorescence value obtained was interpolated using the relative standard curve and expressed as nanograms/ml or nanograms/g of tissue.

St. aureus [5] = details: literature, cited from earlier work
[6] = Staphylococcus aureus, read-out: MIC90
[7] = first experiment, 0.3% aqueous solution, every 2 hours, 5 administrations/day, after one and three days, compared with control (gemifloxacin also vs norfloxacin)
[8] = conjunctiva, single ophthalmic administration (30 µl) of 0.3% solution
[9] = cornea, single ophthalmic administration (30 µl) of 0.3% solution

Structure (SMILES) | MIC50 (Serratia marcescens) [mg/L] | MIC90 (Serratia marcescens) [mg/L] | MIC50 (Ps. aeruginosa) [mg/L] | MIC90 (Ps. aeruginosa) [mg/L] | MIC50 (St. epidermidis) [mg/L] | MIC90 (St. epidermidis) [mg/L] | MIC50 (St. aureus [1]; Staphylococcus aureus) [mg/L] | MIC90 (St. aureus [1]; [6]) [mg/L] | MIC50 (St. coagulase negative) [mg/L] | MIC90 (St. coagulase negative) [mg/L] | reduction in bacterial load in the cornea [2, 7] | concentration in the cornea relative to MIC for St. aureus [4] | further results
C[C@H]1COc2c(N3CCN(C)CC3)c(F)cc3c(=O)c(C(=O)O)cn1c23 [Levofloxacin] | 0.125 (≈ 0.346 µM) | 0.25 (≈ 0.692 µM) | 0.5 (≈ 1.38 µM) | 0.75 (≈ 2.08 µM) | 0.19 (≈ 0.526 µM) | 0.38 (≈ 1.05 µM) | 0.25 (≈ 0.692 µM) | 0.75 (≈ 2.08 µM) | 0.25 (≈ 0.692 µM) | 0.25 (≈ 0.692 µM) |  |  | 
CO/N=C1\CN(c2nc3c(cc2F)c(=O)c(C(=O)O)cn3C2CC2)CC1CN (racemic) [Gemifloxacin, (R,S)-7-(3-aminomethyl-4-methoxyiminopyrrolidin-1yl)-1-cyclopropyl-6-fluoro-4-oxo-1,4-dihydro-1,8-naphthyridin-3-carboxylic acid] | 0.125 (≈ 0.321 µM) | 0.19 (≈ 0.488 µM) | 0.125 (≈ 0.321 µM) | 0.25 (≈ 0.642 µM) | 0.023 (≈ 0.0591 µM) | 0.094 (≈ 0.241 µM) | 0.032 (≈ 0.0822 µM) | 0.064 (≈ 0.164 µM) | 0.016 (≈ 0.0411 µM) | 0.047 (≈ 0.121 µM) | statistically significant reduction in bacterial load |  | reduction in bacterial load in the cornea ([2]; first experiment, 0.15% aqueous solution, every 2 hours, 5 administrations/day, after one and three days, compared to control and 0.3% norfloxacin): statistically significant reduction in bacterial load; reduction in bacterial load in the cornea ([2]; second experiment, 0.3% aqueous solution, every hour, 7 administrations, one day, compared to control): statistically significantly reduce; reduction in bacterial load in the cornea ([2]; second experiment, 0.3% emulsion, every hour, 7 administrations, one day, compared to control): statistically significantly reduce; reduction in bacterial load relative to the reduction effected by ofloxacin ([2]; second experiment, gemifloxacin-containing compositions (0.3% aqueous solution and 0.3% emulsion) vs 0.3% ofloxacin solution): statistically significant; Cmax ([3]; aqueous humour, single administration of 0.3% aqueous solution, healthy eyes): 0.026 µg/mL; Tmax ([3]; aqueous humour, single ophthalmic administration (30 µl) of 0.3% solution): 2 h; Cmax ([3]; conjunctiva, single administration of 0.3% aqueous solution, healthy eyes): 0.98 µg/mL; Cmax [3, 8]: 980 ng/g; Tmax [3, 8]: 0.25 h; Cmax ([3]; cornea, single administration of 0.3% aqueous solution, healthy eyes): 2.6 µg/mL; Cmax [3, 9]: 2600 ng/g; Tmax [3, 9]: 0.25 h; Cmax ([3]; iris-ciliary body, single administration of 0.3% aqueous solution, healthy eyes): 460 ng/g; Tmax ([3]; iris-ciliary body, single ophthalmic administration (30 µl) of 0.3% solution): 2 h
O=C(O)c1cn(C2CC2)c2cc(N3CCNCC3)c(F)cc2c1=O [Ciprofloxacin] | 0.064 (≈ 0.193 µM) | 0.125 (≈ 0.377 µM) | 0.125 (≈ 0.377 µM) | 0.25 (≈ 0.754 µM) | 0.19 (≈ 0.573 µM) | 0.5 (≈ 1.51 µM) | 0.5 (≈ 1.51 µM) | > 32 | 0.25 (≈ 0.754 µM) | 0.25 (≈ 0.754 µM) |  |  | 
COc1c(N2C[C@@H]3CCCN[C@@H]3C2)c(F)cc2c(=O)c(C(=O)O)cn(C3CC3)c12 [Moxifloxacin] | 0.19 (≈ 0.473 µM) | 0.38 (≈ 0.947 µM) | 0.5 (≈ 1.25 µM) | 1 (≈ 2.49 µM) | 0.047 (≈ 0.117 µM) | 0.094 (≈ 0.234 µM) | 0.064 (≈ 0.159 µM) | 0.38 (≈ 0.947 µM) | 0.047 (≈ 0.117 µM) | 0.094 (≈ 0.234 µM) |  |  | 
CCn1cc(C(=O)O)c(=O)c2cc(F)c(N3CCNCC3)cc21 [norfloxacin] |  |  |  |  |  |  |  |  |  |  | does not lead to a reduction in bacterial load | lower corneal concentrations than its MIC50-MIC90 range | MIC50 (St. aureus [5]; lower end of MIC50-MIC90 range for St. aureus): 0.5 mg/L (≈ 1.57 µM); MIC90 (St. aureus [5]; upper end of MIC50-MIC90 range for St. aureus): 2 mg/L (≈ 6.26 µM)
CC1COc2c(N3CCN(C)CC3)c(F)cc3c(=O)c(C(=O)O)cn1c23 (stereo not shown) [Ofloxacin] | 0.19 (≈ 0.526 µM) | 0.38 (≈ 1.05 µM) | 0.5 (≈ 1.38 µM) | 1 (≈ 2.77 µM) | 0.25 (≈ 0.692 µM) | 16 (≈ 44.3 µM) | 0.5 (≈ 1.38 µM) | 1.5 (≈ 4.15 µM) | 0.25 (≈ 0.692 µM) | 0.5 (≈ 1.38 µM) |  | near to its MIC50 | MIC90 (St. aureus [1]): 1.5 mg/L (≈ 4.15 µM); MIC90 (St. aureus [1]; listed as ofloxacin): 1.15 mg/L (≈ 3.18 µM); concentration in the aqueous humour [4]: about 1.5 µg/ml
